From publication PMC7125101, “Molecular bases for HOIPINs-mediated inhibition of LUBAC and innate immune responses” (Communications Biology, 2020)
Where a name gives a salt, the structure may show the parent alone. Read-outs that look alike come from different tables or passages of the source. Blank lines part the entries; values can stand above or below the compound they belong to.

How the values were obtained:
WT-MEF = experiment: cells; parameters: species or system human tumour lines, HEK293T, mouse MEF; Cell viability after 72 h, CellTiter-Glo luminescent assay; details: 72 h
Excerpt: (§1) Importantly, the polymorphisms in HOIP are closely associated with ABC-DLBCL[23]. […] Therefore, we investigated the effect of HOIPINs on B cell lymphoma cells. […] In ABC-DLBCL cell lines, the phosphorylation of p105 and p65 and the expression of NF-κB target genes were suppressed by HOIPINs (Fig. 6d, e). Moreover, the phosphorylation of IκBα was decreased concomitantly with the reduced intracellular amounts of linear polyubiquitin in HOIPIN-1-treated HBL1 cells (an ABC-DLBCL cell line), but not in BJAB cells (a GCB-DLBCL cell line) (Fig. 6f). […] GCB-DLBCL cells (BJAB, SU-DHL-4, and HT) and ABC-DLBCL cells (TK, DLBCL2, and OYB) were cultured in the presence of DMSO or 10 μM HOIPIN-1. Taking the cell viabilities in the presence of DMSO as 100%, the relative cell viabilities of respective cell line in the presence of HOIPIN-1 were assessed by a CellTiter-Glo luminescent cell viability assay. b HOIPIN-8 enhanced the cell death of ABC-DLBCL cells than HOIPIN-1. DLBCL2 cells or BJAB cells were treated with DMSO, 10 μM HOIPIN-1, or 10 μM HOIPIN-8 for the indicated period, and the relative cell viabilities were assessed as in a. c Caspase activation in ABC-DLBCL cells by HOIPIN-8. Cells were treated with or without 10 μM HOIPIN-8 for 24 h, and cell lysates were immunoblotted with the indicated antibodies. d Reduced NF-κB activation in ABC-DLBCL cells by HOIPIN-8. Cells were treated and analyzed as in c. e HOIPIN-1 suppresses the expression of NF-κB target genes in ABC-DLBCL cells. Cells were treated with 10 μM HOIPIN-1 for 24 h, and qPCR analyses were performed. f Intracellular linear ubiquitin and IκBα phosphorylation in ABC-DLBCL cells are diminished by HOIPIN-1. HBL1 and BJAB cells were treated with 10 μM HOIPIN-1 for the indicated period, and cell lysates were immunoblotted with the indicated antibodies. g HOIPIN-8 has potent inhibitory effects on NF-κB activation and linear ubiquitination in ABC-DLBCL cells than those in HOIPIN-1. HBL1 cells were treated with the indicated concentrations of HOIPIN-1 or -8 for 24 h, and cell lysates were immunoblotted with the indicated antibodies. In b, e, data are shown as mean ± SEM, NS not significant, *P < 0.05, **P < 0.01, ***P < 0.001, ****P < 0.0001, by one-way ANOVA with Tukey’s post hoc test. A549, HEK293T, HeLa (ATCC), optineurin-deficient HeLa[31], HOIP-deficient HeLa, C885A mutant of HOIP-restored HeLa, wild-type MEF, and Sharpin-deficient cpdm MEF cells were cultured in DMEM containing 10% fetal bovine serum, 100 IU/ml penicillin G, and 100 μg/ml streptomycin. […]

cpdm MEF = test system: T1, cpdm MEF; experiment: cells; parameters: species or system human tumour lines, HEK293T, mouse MEF; Cell viability after 72 h, CellTiter-Glo luminescent assay; details: 72 h
T1 construct: cpdm (Sharpin-deficient)
Excerpt: as §1

SU-DHL-4 = experiment: cells; parameters: species or system human tumour lines, HEK293T, mouse MEF; Cell viability after 72 h, CellTiter-Glo luminescent assay; details: Homo sapiens, SU-DHL-4, 72 h
OYB = experiment: cells; parameters: species or system human tumour lines, HEK293T, mouse MEF; Cell viability after 72 h, CellTiter-Glo luminescent assay; details: Homo sapiens, HEK-293T, 72 h
HT = experiment: cells; parameters: species or system human tumour lines, HEK293T, mouse MEF; Cell viability after 72 h, CellTiter-Glo luminescent assay; details: Homo sapiens, HT, 72 h
HBL1 = experiment: cells; parameters: species or system human tumour lines, HEK293T, mouse MEF; Cell viability after 72 h, CellTiter-Glo luminescent assay; details: HBL1, 72 h
TK = experiment: cells; parameters: species or system human tumour lines, HEK293T, mouse MEF; Cell viability after 72 h, CellTiter-Glo luminescent assay; details: Homo sapiens, HEK-293T, 72 h
BJAB = experiment: cells; parameters: species or system human tumour lines, HEK293T, mouse MEF; Cell viability after 72 h, CellTiter-Glo luminescent assay; details: Homo sapiens, BJAB, 72 h
Karpas1160P = experiment: cells; parameters: species or system human tumour lines, HEK293T, mouse MEF; Cell viability after 72 h, CellTiter-Glo luminescent assay; details: Homo sapiens, HEK-293T, 72 h
Jurkat = experiment: cells; parameters: species or system human tumour lines, HEK293T, mouse MEF; Cell viability after 72 h, CellTiter-Glo luminescent assay; details: Homo sapiens, Jurkat, 72 h
DLBCL2 = experiment: cells; parameters: species or system human tumour lines, HEK293T, mouse MEF; Cell viability after 72 h, CellTiter-Glo luminescent assay; details: Homo sapiens, HEK-293T, 72 h; read-out: HOIPIN-1 (IC50)
KM-H2 = experiment: cells; parameters: species or system human tumour lines, HEK293T, mouse MEF; Cell viability after 72 h, CellTiter-Glo luminescent assay; details: Homo sapiens, KM-H2, 72 h
A549 = experiment: cells; parameters: species or system human tumour lines, HEK293T, mouse MEF; Cell viability after 72 h, CellTiter-Glo luminescent assay; details: Homo sapiens, A549, 72 h
HeLa = experiment: cells; parameters: species or system human tumour lines, HEK293T, mouse MEF; Cell viability after 72 h, CellTiter-Glo luminescent assay; details: Homo sapiens, HeLa, 72 h
HOIP = molecular target: T2, HOIP (Homo sapiens, UniProt Q96EP0); experiment: X-ray crystal structure at […] Å; also MALDI-TOF intact mass adduct (+[…]) on petit-LUBAC and inhibition of HOIP~ubiquitin thioester formation; type: binding
T2 construct: gene RNF31; RING2-LDD domain, residues 853–1072

HEK293T = experiment: cells; parameters: species or system human tumour lines, mouse MEF; Cell viability after 72 h, CellTiter-Glo luminescent assay; details: Homo sapiens, HEK-293T, 72 h
Excerpt: Importantly, the polymorphisms in HOIP are closely associated with ABC-DLBCL[23]. […] Therefore, we investigated the effect of HOIPINs on B cell lymphoma cells. […] In ABC-DLBCL cell lines, the phosphorylation of p105 and p65 and the expression of NF-κB target genes were suppressed by HOIPINs (Fig. 6d, e). Moreover, the phosphorylation of IκBα was decreased concomitantly with the reduced intracellular amounts of linear polyubiquitin in HOIPIN-1-treated HBL1 cells (an ABC-DLBCL cell line), but not in BJAB cells (a GCB-DLBCL cell line) (Fig. 6f). […] GCB-DLBCL cells (BJAB, SU-DHL-4, and HT) and ABC-DLBCL cells (TK, DLBCL2, and OYB) were cultured in the presence of DMSO or 10 μM HOIPIN-1. Taking the cell viabilities in the presence of DMSO as 100%, the relative cell viabilities of respective cell line in the presence of HOIPIN-1 were assessed by a CellTiter-Glo luminescent cell viability assay. b HOIPIN-8 enhanced the cell death of ABC-DLBCL cells than HOIPIN-1. DLBCL2 cells or BJAB cells were treated with DMSO, 10 μM HOIPIN-1, or 10 μM HOIPIN-8 for the indicated period, and the relative cell viabilities were assessed as in a. c Caspase activation in ABC-DLBCL cells by HOIPIN-8. […] Cells were treated and analyzed as in c. e HOIPIN-1 suppresses the expression of NF-κB target genes in ABC-DLBCL cells. […]

- IC50 (SU-DHL-4; read-out: HOIPIN-1 (IC50)): 46.9 µM
- IC50 (Karpas1160P; read-out: HOIPIN-1 (IC50)): 11 µM
- IC50 (Jurkat; read-out: HOIPIN-1 (IC50)): 20.6 µM
- IC50 (A549; read-out: HOIPIN-1 (IC50)): > 100 µM
- IC50 (HeLa; read-out: HOIPIN-1 (IC50)): 33.7 µM
SMILES: COc1ccccc1C(=O)/C=C/c1ccccc1C(=O)O [HOIPIN-1, 2-[(1E)-3-(2-methoxyphenyl)-3-oxoprop-1-en-1yl] benzoic acid sodium salt]
- IC50 (WT-MEF; read-out: HOIPIN-1 (IC50)): > 100 µM
- IC50 (cpdm MEF; read-out: HOIPIN-1 (IC50)): > 100 µM
- IC50 (OYB; read-out: HOIPIN-1 (IC50)): 16 µM
- IC50 (HT; read-out: HOIPIN-1 (IC50)): 48.2 µM
- IC50 (HBL1; read-out: HOIPIN-1 (IC50)): 16.4 µM
- IC50 (TK; read-out: HOIPIN-1 (IC50)): 9.7 µM
- IC50 (BJAB; read-out: HOIPIN-1 (IC50)): 52.2 µM
- IC50 (DLBCL2): 11.1 µM
- IC50 (KM-H2; read-out: HOIPIN-1 (IC50)): 9.6 µM
- X-ray crystal structure at 1.54 Å; also MALDI-TOF intact mass adduct (+263) on p (HOIP): HOIPINs are covalently attached to the catalytic Cys885 of HOIP via Michael addition
- IC50 (HEK293T; read-out: HOIPIN-1 (IC50)): 40.3 µM

- IC50 (SU-DHL-4; read-out: HOIPIN-8 (IC50)): > 30 µM
- IC50 (Karpas1160P; read-out: HOIPIN-8 (IC50)): 27.6 µM
- IC50 (Jurkat; read-out: HOIPIN-8 (IC50)): > 100 µM
- IC50 (A549; read-out: HOIPIN-8 (IC50)): > 100 µM
- IC50 (HeLa; read-out: HOIPIN-8 (IC50)): > 100 µM
SMILES: Cn1cc(-c2ccc(C(=O)O)c(/C=C/C(=O)c3c(F)cc(-c4cn[nH]c4)cc3F)c2)cn1 [HOIPIN-8, 2-{(E)-3-[2,6-difluoro-4-(1H-pyrazol-4-yl)-phenyl]-3-oxo-propenyl}-4-(1-methyl-1H-pyraol-4-yl)-benzoic acid sodium salt]
- IC50 (WT-MEF; read-out: HOIPIN-8 (IC50)): 49.7 µM
- IC50 (cpdm MEF; read-out: HOIPIN-8 (IC50)): 51.8 µM
- IC50 (OYB; read-out: HOIPIN-8 (IC50)): 14.4 µM
- IC50 (HT; read-out: HOIPIN-8 (IC50)): > 30 µM
- IC50 (HBL1; read-out: HOIPIN-8 (IC50)): 16.7 µM
- IC50 (TK; read-out: HOIPIN-8 (IC50)): 3.7 µM
- IC50 (BJAB; read-out: HOIPIN-8 (IC50)): > 30 µM
- IC50 (KM-H2; read-out: HOIPIN-8 (IC50)): 40.7 µM
- IC50 (HEK293T; read-out: HOIPIN-8 (IC50)): 70.3 µM
